“And” between values parts separate entries of the source, which are not always exact repeats. Equal values may be shown once. Read-outs that look alike come from different tables or passages of the source.
Experiments:
Colo205 cells = experiment: Analysis of cell proliferation and viability; type: cell-based; details: Homo sapiens, read-out: IC50 value
Procedure: Colo205 cells were seeded in 96 well plates and serially diluted compound was added to the wells in duplicate. Control groups included untreated cells, the compound diluent (0.1% DMSO alone) and culture medium without cells.
To measure proliferation, 3 h prior to the end of the experiment 0.5 μCi of 3H thymidine was added to each well. Cells were then harvested and the incorporated radioactivity counted on a Wallac microplate beta-counter. Cell viability was assessed using Promega CellTiter 96AQ to measure MTS conversion. Dose response curves were calculated using either Prism 3.0 (GraphPad) or SoftMax Pro 4.3.1 LS (Molecular Devices) software.

Aurora-1 (Aurora B) = Aurora-1 (Aurora B) (Homo sapiens, UniProt Q96GD4); experiment: Aurora-1 (Aurora B) inhibition assay (radiometric); type: biochemical; details: read-out: Aurora B kinase Ki value
Procedure: An assay buffer solution was prepared which consisted of 25 mM HEPES (pH 7.5), 10 mM MgCl2, 0.1% BSA and 10% glycerol. […] To 22 μL of the Aurora-B solution, in a 96-well plate, was added 2 μl of a compound stock solution in DMSO and the mixture allowed to equilibrate for 10 minutes at 25° C. The enzyme reaction was initiated by the addition of 16 μl stock [γ-^33P]-ATP solution (˜20 nCi/μL) prepared in assay buffer, to a final assay concentration of 800 μM. The reaction was stopped after 3 hours by the addition of 16 μL 500 mM phosphoric acid and the levels of ^33P incorporation into the peptide substrate were determined by the following method.
A phosphocellulose 96-well plate (Millipore, Cat no. MAPHNOB50) was pre-treated with 100 μL of a 100 mM phosphoric acid prior to the addition of the enzyme reaction mixture (40 μL). The solution was left to soak on to the phosphocellulose membrane for 30 minutes and the plate subsequently washed four times with 200 μL of a 100 mM phosphoric acid. […] Levels of non-enzyme catalyzed background radioactivity were determined by adding 16 μL of the 500 mM phosphoric acid to control wells, containing all assay components (which acts to denature the enzyme), prior to the addition of the [γ-^33P]-ATP solution. Levels of enzyme catalyzed. ^33P incorporation were calculated by subtracting mean background counts from those measured at each inhibitor concentration. […] Ki values were calculated from initial rate data by non-linear regression using the Prism software package (Prism 3.0, Graphpad Software, San Diego, Calif.).

Aurora-2 (Aurora A) = target: T1, Aurora-2 (Aurora A) (Homo sapiens, UniProt O14965); experiment: Aurora-2 (Aurora A) inhibition assay, coupled enzyme; type: biochemical; details: read-out: Aurora A kinase Ki value
T1 sequence (O14965 1-403): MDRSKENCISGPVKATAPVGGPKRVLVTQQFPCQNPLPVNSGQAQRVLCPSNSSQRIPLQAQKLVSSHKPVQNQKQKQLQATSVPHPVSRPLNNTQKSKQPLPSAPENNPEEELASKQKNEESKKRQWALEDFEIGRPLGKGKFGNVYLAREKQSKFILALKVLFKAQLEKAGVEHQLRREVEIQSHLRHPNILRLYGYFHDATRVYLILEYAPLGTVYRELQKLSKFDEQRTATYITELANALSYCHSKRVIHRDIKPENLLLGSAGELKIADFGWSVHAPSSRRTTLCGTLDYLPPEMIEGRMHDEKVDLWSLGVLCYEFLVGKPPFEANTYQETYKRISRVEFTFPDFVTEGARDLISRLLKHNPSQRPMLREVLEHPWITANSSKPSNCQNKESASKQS
Procedure: Assays were carried out in a mixture of 100 mM Hepes (pH7.5), 10 mM MgCl2, 1 mM DTT, 25 mM NaCl, 2.5 mM phosphoenolpyruvate, 300 μM NADH, 30 μg/ml pyruvate kinase and 10 μg/ml lactate dehydrogenase. […] Assays were carried out at 30° C. and in the presence of 40 nM Aurora-2.
The plate was preincubated for 10 minutes at 30° C. and the reaction initiated by addition of 10 μl of Aurora-2. Initial reaction rates were determined with a Molecular Devices SpectraMax Plus plate reader over a 10 minute time course. IC50 and Ki data were calculated from non-linear regression analysis using the Prism software package (GraphPad Prism version 3.0cx for Macintosh, GraphPad Software, San Diego Calif., USA).

[1] = COLO 205, Colo205 cells, incubated for 72 hours
[2] = COLO 205, Colo205 cells, incubated for 96 hours

Sequence of Aurora-1 (Aurora B) (Q96GD4 whole entry): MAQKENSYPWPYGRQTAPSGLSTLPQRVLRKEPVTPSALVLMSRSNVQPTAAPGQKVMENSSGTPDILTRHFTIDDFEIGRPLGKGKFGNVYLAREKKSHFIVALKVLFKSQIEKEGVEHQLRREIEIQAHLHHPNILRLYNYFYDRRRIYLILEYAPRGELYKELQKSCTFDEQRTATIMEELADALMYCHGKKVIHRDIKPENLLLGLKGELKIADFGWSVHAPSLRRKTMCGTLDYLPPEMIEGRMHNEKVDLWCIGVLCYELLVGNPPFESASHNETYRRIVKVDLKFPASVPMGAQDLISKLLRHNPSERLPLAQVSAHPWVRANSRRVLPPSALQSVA

SMILES | IC50 (Colo205 cells; [1]) [µM] | Ki (Aurora-1 (Aurora B)) | IC50 (Colo205 cells; [2]) [µM] | Ki (Aurora-2 (Aurora A)) [µM] | IC50 (Colo205 cells; COLO 205, 72 h) [µM]
Cc1cc(Nc2cc(N3CC(N4CCCC4)C3)nc(Sc3ccc4nc(C(F)(F)F)n(C)c4c3)n2)[nH]n1 [Compound 176] | ≤ 0.03 | 0.01 to 0.05 µM and < 0.025 µM |  |  | 
Cc1cc(Nc2cc(N3CCC3)nc(Sc3ccc(NC(=O)c4cccc(CN5CCC5)c4)cc3)n2)[nH]n1 [Compound 140] |  | 0.05 to 2 µM | 0.05 to 1 |  | 
CCC(=O)Nc1ccc(Sc2nc(Nc3cc(C)n[nH]3)cc(N3CC(O)(C4CCCCC4)C3)n2)cc1 [Compound 101] |  | ≤ 0.01 µM | ≤ 0.05 | ≤ 0.001 | 
Cc1cc(Nc2cc(N3CC(F)(C4CC4)C3)nc(Sc3ccc(NC(=O)C4(C(F)(F)F)CC4)cc3)n2)[nH]n1 [Compound 143] |  |  |  |  | ≤ 0.03
Cc1cc(Nc2cc(N3CCC3)nc(Sc3ccc(NC(=O)c4cccc(Cl)c4Cl)cc3)n2)n[nH]1 [Compound 42] |  |  | 0.05 to 1 |  | 
Cc1cc(Nc2cc(N3CC(F)(C4CC4)C3)nc(Sc3ccc(N)cc3)n2)[nH]n1 [Compound 174] | > 0.2 |  |  |  | 
Cc1cc(Nc2cc(C(=O)N3CCC3)nc(Sc3ccc(NC(=O)c4ccccc4Cl)cc3)n2)n[nH]1 [Compound 62] |  | 0.05 to 2 µM | > 1 |  | 
CCC(=O)Nc1ccc(Sc2nc(Nc3cc(C)n[nH]3)cc(N3CC(O)(CC)C3)n2)cc1 [Compound 98] |  |  | 0.05 to 1 |  | 
Cc1cc(Nc2cc(N3CC(F)(C4CC4)C3)nc(Nc3ccc4nc(C(F)(F)F)[nH]c4c3)n2)[nH]n1 [Compound 210] | > 0.2 | 0.05 to 2 µM |  | 0.001 to 0.005 | 
CCCCOC1(C2CC2)CN(c2cc(Nc3cc(C)n[nH]3)nc(Sc3ccc(NC(=O)C4CC4)cc3)n2)C1 [Compound 111] |  | ≤ 0.01 µM | ≤ 0.05 | ≤ 0.001 | 
Cc1cc(Nc2cc(N3CCC3)nc(Sc3ccc(NC(=O)c4cccnc4C)cc3)n2)[nH]n1 [Compound 63] |  | 0.01 to 0.05 µM | > 1 | 0.005 to 0.2 | 
Cc1cc(Nc2cc(N3CCC3)nc(Sc3ccc(NC(=O)c4sc(C)nc4C)cc3)n2)n[nH]1 [Compound 41] |  | 0.05 to 2 µM | 0.05 to 1 | 0.005 to 0.2 | 
CC(=O)Nc1ccc(Nc2nc(Nc3cc(C)n[nH]3)cc(N3CC(F)(C4CC4)C3)n2)cc1 [Compound 201] |  | 0.05 to 2 µM | 0.05 to 1 | 0.005 to 0.2 | 
Cc1cc(Nc2cc(N3CCC3)nc(Sc3ccc(NC(=O)c4ccccc4C(F)F)cc3)n2)[nH]n1 [Compound 120] | > 0.2 |  |  |  | 
Cc1cc(Nc2cc(N3CC(F)(F)C3)nc(Sc3ccc(NC(=O)CC(F)(F)F)cc3)n2)[nH]n1 [Compound 130] | 0.03 to 0.2 | 0.01 to 0.05 µM and < 0.025 µM |  | 0.001 to 0.005 | 
CSc1ccccc1C(=O)Nc1ccc(Sc2nc(Nc3cc(C)[nH]n3)cc(N3CCC3)n2)cc1 [Compound 165] |  |  | 0.05 to 1 |  | 
Cc1cc(Nc2cc(N3CC(F)(C4CC4)C3)nc(Sc3ccc4nc(CC(F)(F)F)n(C)c4c3)n2)[nH]n1 [Compound 187] | ≤ 0.03 | ≤ 0.01 µM |  | ≤ 0.001 | 
CCC(=O)Nc1ccc(Sc2nc(Nc3cc(C)n[nH]3)cc(N3CC(O)(CC(C)(C)C)C3)n2)cc1 [Compound 84] |  |  | ≤ 0.05 |  | 
Cc1cc(Nc2cc(N3CC(F)(C4CC4)C3)nc(Sc3ccc4nc(C)ccc4c3)n2)[nH]n1 [Compound 154] |  | 0.01 to 0.05 µM and < 0.025 µM | 0.05 to 1 | ≤ 0.001 | 
Cc1cc(Nc2cc(N3CCC3)nc(Sc3ccc(NC(=O)c4sccc4Cl)cc3)n2)n[nH]1 [Compound 43] |  | 0.01 to 0.05 µM | 0.05 to 1 | 0.001 to 0.005 | 

Source: US8637511B2, “Aminopyrimidines useful as kinase inhibitors” (Vertex Pharmaceuticals Incorporated, priority 2005, dated 2014)
